Data published in US12714669B2, “Liposomal formulations comprising AT1 receptor blockers and uses thereof” (YISSUM RESEARCH DEVELOPMENT COMPANY OF THE HEBREW …, priority 2020, dated 2026).
“Also recorded” adds a separate entry of the source. Read-outs that look alike come from different tables or passages of the source.

What was measured:
[1] = aqueous media; compared with valsartan; cited from earlier work
AT1 receptor [2] = molecular target: T1, AT1 receptor (Homo sapiens, UniProt P30556); conditions: cited from earlier work
T1 sequence (P30556 1-359): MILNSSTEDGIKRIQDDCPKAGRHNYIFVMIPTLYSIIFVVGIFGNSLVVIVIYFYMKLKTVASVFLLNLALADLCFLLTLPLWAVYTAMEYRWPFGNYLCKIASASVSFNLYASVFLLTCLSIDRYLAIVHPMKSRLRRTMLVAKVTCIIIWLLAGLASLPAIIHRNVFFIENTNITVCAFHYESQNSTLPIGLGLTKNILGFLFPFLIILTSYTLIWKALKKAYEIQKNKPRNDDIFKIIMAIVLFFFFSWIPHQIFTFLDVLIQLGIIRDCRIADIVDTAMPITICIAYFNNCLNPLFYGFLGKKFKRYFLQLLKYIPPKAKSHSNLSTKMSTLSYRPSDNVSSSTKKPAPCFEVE

AT1 receptor [3] = molecular target: T1, AT1 receptor; assay: IC50 / affinity to AT1 receptor (stated, not measured in the patent); format: binding; conditions: corresponding to the nM values; read-out: IC50 to AT1 receptor, as mass concentration (converted)
[4] = test system: mouse mean blood pressure (MBP); assay: Liposomal valsartan activity on mice blood pressure (CODA monitor, tail); format: in vivo
Method: The development of liposomal ARB's aimed at delivering the drugs to the tumor and exert their activity there while avoiding the systemic effect of the drug on blood pressure. […] MBP was measured using CODA monitor device allowing measurement of blood pressure in mouse tail.
Four mice were tested before drug administration and 2, 24 and 48 h after drug administration. For each mouse, at least 3 measurements (and up to 10) were recorded for each time point.

SMILES: CCOc1nc2cccc(C(=O)O)c2n1Cc1ccc(-c2ccccc2-c2nnn[nH]2)cc1 [Candesartan, 2-ethoxy-3-[[4-[2-(2H-tetrazol-5-yl)phenyl]phenyl]methyl]benzimidazole-4-carboxylic acid]
- solubility [1]: very limited; also recorded: not soluble
- IC50 (AT1 receptor [2]): 3 nM
- affinity for AT1 receptor (AT1 receptor [2]; versus losartan, telmisartan, valsartan (Bhuiyan 2013)): highest affinity
- IC50 (AT1 receptor [3]): 2.95 nM

SMILES: CCCCC(=O)N(Cc1ccc(-c2ccccc2-c2nnn[nH]2)cc1)[C@H](C(=O)O)C(C)C [Valsartan, (2S)-3-methyl-2-[pentanoyl-[[4-[2-(2H-tetrazol-5-yl)phenyl]phenyl]methyl]amino]butanoic acid]
- lowering of MBP ([4]; 25 mg/kg, 2 h after administration): ~ 35 units
- MBP at t=24 h ([4]; 25 mg/kg, 24 h after administration): returned to baseline
- effect on MBP 2 h after injection ([4]; 2 h after injection): reduction in MBP
- MBP after administration ([4]; reduction from 105 mmHg): 70 mmHg
